The values that follow are results of earlier work, collected in patent publication EP1223952B1, “METHODS FOR TREATMENT OF SOLID TUMORS AND METASTASIS BY GENE THERAPY” (Aguilar-Cordova, Carlos, Estuardo, priority 1999, dated 2001).

The conditions of series [1]: in combination with an LHRH agonist.
The conditions of series [2]: oral, at all doses.
For series [3] the following is noted: in vivo.

On to `CC(C)C(=O)Nc1ccc([N+](=O)[O-])c(C(F)(F)F)c1` [Eulexin, flutamide], for which, in series [1], the diarrhea is 12%, the gynecomastia is reported as 9%, the hot flashes is on record as 61% and the impotence is given as 33%. Further, in series [1], the loss of libido is 36%, the nausea/vomiting is 11%, the other is given as 7% and the “other GI” value is listed as 6%.

As to `CC(C)[C@H](N)C(=O)OCCOCn1cnc2c(=O)[nH]c(N)nc21` [valacyclovir, Valacyclovir], where the note is “in vivo”, the arthralgia is listed as 1-6%, the depression is reported as 1-7%, the “dizziness or abdominal pain” value is given as 2-11% and the headache is reported as 14-35%. Besides, where the note is “in vivo”, the nausea is reported as 6-15 % of patients and the vomiting is listed as 1-6%. For the same compound, for the setting “laboratory abnormalities”, the “abnormal liver function tests” value is recorded as 1-4 % of patients; the “anemia, leukopenia, thrombocytopenia and elevated serum creatinine” value was ≤ 1 % of patients. For the same compound, the “Peak plasma valacyclovir concentrations” value in series [2] is given as “less than 0.5 mcg/ml”.

As for leuprolide acetate [Lupron Depot], the “Elevation of LDH (> 2 x normal)” value in series [3] was 19.6%.
